The record followed here is US20200148682A1, “AKT ISOZYME-SPECIFIC COVALENT INHIBITORS DERIVED FROM REDOX-SIGNALING LIPIDS” (Cornell University, priority 2017, published 2020).

Structures are written as SMILES.

What all share (format): cell-based
Assay [1] deals with T47D MK-2206-res. Nature of the assay: Cell viability assay (AlamarBlue), MK-2206-resistant line. The settings on record: 3 days. The protocol:
After this time, cells were lysed and analyzed by antibodies for phosphorylated T305 (pT305) of Akt3, Halo (Akt), and Actin (loading control). […] FIG. 23F is a graph showing proliferation curves. […] After this time, the number of viable cells was calculated using AlamarBlue®. Proliferation curves were fitted to the PI50 equation (EQN. 4). […] FIG. 23H is a graph showing the percentage of viable cells. […] The percentage of growth relative to DMSO-treated cells is shown for the 48 hour point and the 72 hour point. FIG. 23I is a schematic showing the different methods used to derive the data in 23H.
(§1) Indicated cells were plated in a 96-well plate containing the DMEM complete medium (see Example 11 for complete medium formulation, 100 μL per well) with a density of 3,000-5,000 cells per well for 12 hours followed by the addition of varying concentrations of inhibitors in rinse medium (100 μL). The cells were allowed to grow for 72 hours and 100 μL of the culture medium was removed from each well. This was followed by the addition of 10 μL AlamarBlue® reagent to each well. The fluorescence emission signals at 590 nm were read by Cytation 3 cell imaging multi-mode reader (BioTeK) using an excitation wavelength of 560 nm. Curve fitting and data analysis were performed using Prism software.

In assay [2] the test system is MDA-MB-468. Nature of the assay: Cell viability assay (AlamarBlue). The conditions noted are these: MDA-MB-468, 72 hours. Here is the method:
(§2) FIGS. 22A and 22D are graphs showing results of cytotoxicity assays for MDA-MB-468 (FIG. 22A) and BT-549 (FIG. 22D). […] Stated cell lines were plated in 96-well plates (3000 cells per well) in the presence of the stated concentration of inhibitor. After 72 hours, the number of viable cells was analyzed by AlamarBlue®. Proliferation inhibition 50% (PI50) values were calculated by fitting data to “PI50 equation” (EQN 4) (FIG. 22C). MDA cells were transfected with the stated siRNA using lipofectamine 3000 for 12 hours. […] After 72 hours, the number of viable cells was calculated using AlamarBlue®. FIG. 22F is a schematic showing AlamarBlue® viability assay. […] MDA-MB-468 cells were treated with the stated drugs for 72 hours at the PI60 and PI80. After this time, cells were harvested, fixed/permeabilized with ethanol and DNA content was stained using propidium iodide (visualized in the 488-3 channel). RNA was removed simultaneously using RNAse. After 30 min at room temperature, cells were analyzed by flow cytometry.
as §1

For assay [3], the system named is BT-549. The assay can be described thus: Cell viability assay (AlamarBlue). The conditions noted are these: BT-549, 72 hours. The protocol: as §2, §1
On the technique in general: The colour change of resazurin is a common sign of viable cells or microbes.

Assay [4] concerns endogenous Akt. The assay can be described thus: Biotin-azide pulldown of endogenous Akt kinases from native HEK293T cells. The conditions noted are these: 5 μM, 12 hours.
Experimental: A fraction of each sample was used for the input blot. The remaining cell lysates were labeled with biotin-azide using standard click chemistry followed by streptavidin enrichment.
HEK293T cells were split in 100 cm^2 plates. […] Cells were harvested, washed twice with chilled 1×DPBS and flash frozen. Cell lysis was performed in 200 μL lysis buffer following general procedure described in Example 13, Each lysate was subsequently diluted to 2 mg/mL with lysis buffer and a small fraction of each lysate sample was kept for input gel. The remaining lysates were subjected to click reaction with biotin-azide for 30 min at 37° C. The final concentrations of each component was: 2 mM TCEP, 5% t-BuOH, 1% SDS, 1 mM CuSO4, 0.1 mM Cu(TBTA), 10 μM biotin-azide and 1.2 mg/mL lysate protein. The lysate proteins were precipitated by adding four volumes of ethanol pre-chilled at −20° C. The sample was vortexed and incubated at −80° C. overnight (or at least 4 hours). The precipitant was collected by centrifugation at 20,000×g for 30 min at 4° C. and washed twice with pre-chilled methanol then acetone. The pellet was resuspended in 25 μL 50 mM HEPES (pH 7.6), 8% LDS and 0.5 μM EDTA and dissolved by vortexing and heating at 42° C. for 5 min. […]

For the molecule `C#CCCCC(F)/C=C/C(=O)NC1(c2ccc(-c3nc4ccn5c(=O)[nH]nc5c4cc3-c3ccccc3)cc2)CCC1.Cl` (stereo not shown) [MK-FNE, (E)-8-(4-(1-(4-Fluoronon-2-en-8-ynamido)cyclobutyl)phenyl)-3-oxo-9-phenyl-2,3-dihydro-[1,2,4]triazolo[3,4-f][1,6]naphthyridin-7-ium Chloride], in assay [1], the “resistance of T47D MK-2206-res line” value was “significantly less resistant”. Further, the “toxicity / potency relative to MK-2206” value in assay [2] and in assay [3] was “similarly potent to MK-2206” in each case.
Take `C#CCCCC(O)/C=C/C(=O)NC1(c2ccc(-c3nc4ccn5c(=O)[nH]nc5c4cc3-c3ccccc3)cc2)CCC1.Cl` (stereo not shown) [MK-HNE, (E)-8-(4-(1-(4-Hydroxynon-2-en-8-ynamido)cyclobutyl)phenyl)-3-oxo-9-phenyl-2,3-dihydro-[1,2,4]triazolo[3,4-f][1,6]naphthyridin-7-ium Chloride]: the “labeling of endogenous Akt (streptavidin enrichment, anti-pan-Akt blot)” value in assay [4] is listed as “enrichment of endogenous Akt protein(s)”.
